How the values were obtained:
Assay type in all cases: cell-based
E. coli DH5α = assay: Antibacterial activity: MIC and growth curve against E. coli DH5α in 96-well plate; details: minimal inhibitory concentration against E. coli DH5α; 96-well plate, 5×10^5 CFU/mL, 37° C., judged after 8 h
Method in brief: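 MIC taken as lowest protein level with no bacterial growth, tracked by A600 every 30 min during 37 °C, 175 rpm culture. Two-fold protein series 50-12.5 μg/mL final, triplicate wells, against 5×10^5 CFU/mL of LB-washed mid-log cells.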

E. coli BL21 = assay: MIC against Gram-negative bacteria: E. coli BL21; details: 5×10^5 CFU/mL; for MIC E. coli BL21 / MIC (μg/mL) E. coli BL21: 10 h cultivation at 37° C.; for MIC E. coli BL21: two-fold serial dilution
Method in brief: (§1)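 Inocula prepared by growing LB cultures at 37° C to 0.5 McFarland, centrifuging at 4000×g, and resuspending in fresh medium. Final density 5×10^5 CFU/mL per well with two-fold dilutions of purified EGF domain protein; shaking incubation at 37° C.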

Pseudomonas aeruginosa = assay: MIC against Gram-negative bacteria: Pseudomonas aeruginosa; details: 5×10^5 CFU/mL; for MIC P. aeruginosa / MIC (μg/mL) P. aeruginosa: 10 h cultivation at 37° C.; for MIC P. aeruginosa: two-fold serial dilution
Method in brief: as §1

Klebsiella pneumonia = assay: MIC against Gram-negative bacteria: Klebsiella pneumonia; details: 5×10^5 CFU/mL; for MIC K. pneumonia / MIC (μg/mL) K. pneumonia: 10 h cultivation at 37° C.; for MIC K. pneumonia: two-fold serial dilution
Method in brief: as §1

Enterobacter cloacae = assay: MIC against Gram-negative bacteria: Enterobacter cloacae; details: 5×10^5 CFU/mL; for MIC E. cloacae / MIC (μg/mL) E. cloacae: 10 h cultivation at 37° C.; for MIC E. cloacae: two-fold serial dilution
Method in brief: as §1

Aeromonas hydrophila = assay: MIC against Gram-negative bacteria: Aeromonas hydrophila; details: 5×10^5 CFU/mL; for MIC A. hydrophila / MIC (μg/mL) A. hydrophila: 10 h cultivation at 37° C.; for MIC A. hydrophila: two-fold serial dilution
Method in brief: as §1

Citrobacter diversus = assay: MIC against Gram-negative bacteria: Citrobacter diversus; details: 5×10^5 CFU/mL; for MIC C. diversus / MIC (μg/mL) C. diversus: 10 h cultivation at 37° C.; for MIC C. diversus: two-fold serial dilution
Method in brief: as §1

Moraxella catarrhalis = assay: MIC against Gram-negative bacteria: Moraxella catarrhalis; details: 5×10^5 CFU/mL; for MIC M. catarrhalis / MIC (μg/mL) M. catarrhalis: 10 h cultivation at 37° C.; for MIC M. catarrhalis: two-fold serial dilution
Method in brief: as §1

Proteus mirabilis = assay: MIC against Gram-negative bacteria: Proteus mirabilis; details: 5×10^5 CFU/mL; for MIC P. mirabilis / MIC (μg/mL) P. mirabilis: 10 h cultivation at 37° C.; for MIC P. mirabilis: two-fold serial dilution
Method in brief: as §1

Proteus vulgaris = assay: MIC against Gram-negative bacteria: Proteus vulgaris; details: 5×10^5 CFU/mL; for MIC P. vulgaris / MIC (μg/mL) P. vulgaris: 10 h cultivation at 37° C.; for MIC P. vulgaris: two-fold serial dilution
Method in brief: as §1

Serratia marcescens = assay: MIC against Gram-negative bacteria: Serratia marcescens; details: 5×10^5 CFU/mL; for MIC S. marcescens / MIC (μg/mL) S. marcescens: 10 h cultivation at 37° C.; for MIC S. marcescens: two-fold serial dilution
Method in brief: as §1

Substance	MIC (E. coli DH5α) [µg/mL]	MIC E. coli BL21 (E. coli BL21) [µg/mL]	MIC P. aeruginosa (Pseudomonas aeruginosa) [µg/mL]	MIC K. pneumonia (Klebsiella pneumonia) [µg/mL]	MIC E. cloacae (Enterobacter cloacae) [µg/mL]	MIC A. hydrophila (Aeromonas hydrophila) [µg/mL]	MIC C. diversus (Citrobacter diversus) [µg/mL]	MIC M. catarrhalis (Moraxella catarrhalis) [µg/mL]	MIC P. mirabilis (Proteus mirabilis) [µg/mL]	MIC P. vulgaris (Proteus vulgaris) [µg/mL]	MIC S. marcescens (Serratia marcescens) [µg/mL]	MIC (μg/mL) E. coli BL21 (E. coli BL21; E. coli BL21) [µg/mL]	MIC (μg/mL) P. aeruginosa (Pseudomonas aeruginosa) [µg/mL]	MIC (μg/mL) K. pneumonia (Klebsiella pneumonia) [µg/mL]	MIC (μg/mL) E. cloacae (Enterobacter cloacae) [µg/mL]	MIC (μg/mL) A. hydrophila (Aeromonas hydrophila) [µg/mL]	MIC (μg/mL) C. diversus (Citrobacter diversus) [µg/mL]	MIC (μg/mL) M. catarrhalis (Moraxella catarrhalis) [µg/mL]	MIC (μg/mL) P. mirabilis (Proteus mirabilis) [µg/mL]	MIC (μg/mL) P. vulgaris (Proteus vulgaris) [µg/mL]	further results
PRT1159 (TTDDQENECQHEAVCKDEINRPRCSCSLSYIGRLCV; listed as Homo sapiens)	12.5	50	12.5	50	12.5	25	50	25	12.5	25	12.5	–	–	–	–	–	–	–	–	–	–
PRT1278 (DIDECRLNNGGCDHICRNTVGSFECSCKKGYKLLINERNCQ; listed as Homo sapiens)	25	–	–	–	–	–	–	–	–	–	–	–	–	–	–	–	–	–	–	–	MIC against E. coli BL21 (E. coli BL21; E. coli BL21, 96-well plate, 37° C., 10 h): 12.5 µg/mL; MIC against P. aeruginosa (Pseudomonas aeruginosa; Pseudomonas aeruginosa, 96-well plate, 37° C., 10 h): 12.5 µg/mL; MIC against K. pneumonia (Klebsiella pneumonia; Klebsiella pneumonia, 96-well plate, 37° C., 10 h): 12.5 µg/mL; MIC against E. cloacae (Enterobacter cloacae; Enterobacter cloacae, 96-well plate, 37° C., 10 h): 12.5 µg/mL; MIC against A. hydrophila (Aeromonas hydrophila; Aeromonas hydrophila, 96-well plate, 37° C., 10 h): 12.5 µg/mL; MIC against C. diversus (Citrobacter diversus; Citrobacter diversus, 96-well plate, 37° C., 10 h): 12.5 µg/mL; MIC against M. catarrhalis (Moraxella catarrhalis; Moraxella catarrhalis, 96-well plate, 37° C., 10 h): 12.5 µg/mL; MIC against P. mirabilis (Proteus mirabilis; Proteus mirabilis, 96-well plate, 37° C., 10 h): 12.5 µg/mL; MIC against P. vulgaris (Proteus vulgaris; Proteus vulgaris, 96-well plate, 37° C., 10 h): 12.5 µg/mL; MIC against S. marcescens (Serratia marcescens; Serratia marcescens, 96-well plate, 37° C., 10 h): 12.5 µg/mL
PRT179 (RVDRCSLQPCRNGGLCLDLGHALRCRCRAGFAGPRCE; listed as Homo sapiens)	50	–	–	–	–	–	–	–	–	–	–	25	12.5	25	50	12.5	25	12.5	25	12.5	MIC (μg/mL) S. marcescens (Serratia marcescens): 12.5 µg/mL
PRT180 (DLDDCAGRACANGGTCVEGGGAHRCSCALGFGGRDCR; listed as Homo sapiens)	12.5	–	–	–	–	–	–	–	–	–	–	12.5	12.5	12.5	50	25	12.5	25	50	25	MIC (μg/mL) S. marcescens (Serratia marcescens): 12.5 µg/mL
PRT1138 (EINECDSDPCMNGGLCHESTIPGQFVCLCPPLYTGQFCH; listed as Homo sapiens)	25	50	25	12.5	25	25	50	25	12.5	25	50	–	–	–	–	–	–	–	–	–	–

Reference: patent US9833497B2, “Human originated EGF domain proteins and use of the same” (CHENGDU SOURCEBIO LIMITED-LIABILITY COMPANY, priority 2013, dated 2017)
